Measurements from publication PMC8341874 (RSC Chemical Biology, 2021).

System: 20S core particle (20S CP) of the proteasome
Experiment: FRET peptide reporter hydrolysis, single concentration
Format: biochemical, Homo sapiens
Details: stimulator (activation); site unknown

## C[C@H]1[C@H](C)CC[C@]2(C(=O)O)CC[C@]3(C)C(=CC[C@@H]4[C@@]5(C)CC[C@H](O)C(C)(C)[C@@H]5CC[C@]43C)[C@H]12 [UA, ursolic acid]
  % stimulation over control at 25 μM: 215%
